From US5405849A, “Angiotensin II receptor blocking 2,3,6 substituted quinazolinones” (American Cyanamid Company, priority 1993, dated 1995)

Tested on: angiotensin II (AII) vasopressor response
Test: AII challenge: antagonism of the vasopressor response of angiotensin II in conscious Okamoto-Aoki SHR
Type: in vivo, rat (Okamoto-Aoki SHR)
Settings: for inhibition in vivo at 1 mg/kg / inhibition in vivo at 2 mg/kg / inhibition in vivo at 3 mg/kg / inhibition in vivo at 5 mg/kg / inhibition in vivo at 30 mg/kg / inhibition in vivo at 10 mg/kg / inhibition in vivo at 6 mg/kg: Rattus norvegicus; for inhibition in vivo at 1 mg/kg / inhibition in vivo at 2 mg/kg / inhibition in vivo at 3 mg/kg / inhibition in vivo at 30 mg/kg / inhibition in vivo at 10 mg/kg / inhibition in vivo at 6 mg/kg: iv; for inhibition in vivo at 5 mg/kg: po; for inhibition in vivo at 30 mg/kg: 30 mg/kg iv; for inhibition in vivo at 10 mg/kg: 10 mg/kg iv
Text: Conscious Male Okamoto-Aoki SHR, 16-20 weeks old, weighing approximately 330 g are purchased from Charles River Labs (Wilmington, Mass.). Conscious rats are restrained in a supine position with elastic tape. The area at the base of the tail is locally anesthetized by subcutaneous infiltration with 2% procaine. The ventral caudal artery and vein are isolated, and a cannula made of polyethylene (PE) 10-20 tubing (fused together by heat) is passed into the lower abdominal aorta and vena cava, respectively. The cannula is secured, heparinized (1,000 I.U./ml), sealed and the wound is closed. The animals are placed in plastic restraining cages in an upright position. The cannula is attached to a Statham P23Db pressure transducer, and pulsatile blood pressure is recorded to 10-15 minutes with a Gould Brush recorder.
Angiotensin II (human sequence, Sigma Chem. Co., St. Louis, Mo.) of 0.05 and 0.1 ug/kg i.v. is injected into all rats (predosing response). Then a test compound, vehicle or a known angiotensin II antagonist is administered i.v., i.p. or orally to each set of rats. […] The vasopressor response of angiotensin II is measured for the increase in systolic blood pressure in mmHg. The percentage of antagonism or blockade of the vasopressor response of angiotensin II by a compound is calculated using the vasopressor response (increase in systolic blood pressure) of angiotensin II of each rat predosing the compound as 100%.

CCCCc1nc2ccc(C(C)(C)OC)cc2c(=O)n1Cc1ccc(-c2ccccc2-c2nnn[nH]2)cc1 [Example 57, 2-Butyl-6-(1-methoxy-1-methylethyl)-3-[[2'-(1H-tetrazol-5-yl)[1,1'-biphenyl]-4-yl]methyl]-4(3H)-quinazolinone]
Response change (systolic BP increase to AII) (1 mg/kg iv, AII .025 ug/kg, 15 min): 15 mmHg | Response change (systolic BP increase to AII) (1 mg/kg iv, AII .025 ug/kg, 30 min): 15 mmHg | Response change (systolic BP increase to AII) (1 mg/kg iv, AII .025 ug/kg, 60 min): 5 mmHg | Response change (systolic BP increase to AII) (1 mg/kg iv, AII .05 ug/kg, 15 min): 5 mmHg | Response change (systolic BP increase to AII) (1 mg/kg iv, AII .05 ug/kg, 30 min): 10 mmHg | Response change (systolic BP increase to AII) (1 mg/kg iv, AII .05 ug/kg, 60 min): 15 mmHg | Response change (systolic BP increase to AII) (1 mg/kg iv, AII .1 ug/kg, 15 min): 25 mmHg | Response change (systolic BP increase to AII) (1 mg/kg iv, AII .1 ug/kg, 30 min): 35 mmHg | Response change (systolic BP increase to AII) (1 mg/kg iv, AII .1 ug/kg, 60 min): 35 mmHg | Response change (systolic BP increase to AII) (2 mg/kg iv, AII .025 ug/kg, 30 min): 0 mmHg | Response change (systolic BP increase to AII) (2 mg/kg iv, AII .025 ug/kg, 120 min): 60 mmHg | Response change (systolic BP increase to AII) (2 mg/kg iv, AII .025 ug/kg, 150 min): 0 mmHg | Response change (systolic BP increase to AII) (2 mg/kg iv, AII .05 ug/kg, 30 min): 0 mmHg | Response change (systolic BP increase to AII) (2 mg/kg iv, AII .05 ug/kg, 120 min): 30 mmHg | Response change (systolic BP increase to AII) (2 mg/kg iv, AII .05 ug/kg, 150 min): 0 mmHg | Response change (systolic BP increase to AII) (2 mg/kg iv, AII .1 ug/kg, 30 min): 0 mmHg | Response change (systolic BP increase to AII) (2 mg/kg iv, AII .1 ug/kg, 120 min): 20 mmHg | Response change (systolic BP increase to AII) (3 mg/kg iv, AII .025 ug/kg, 150 min): 15 mmHg | Response change (systolic BP increase to AII) (3 mg/kg iv, AII .05 ug/kg, 150 min): 15 mmHg | Response change (systolic BP increase to AII) (3 mg/kg iv, AII .1 ug/kg, 150 min): 25 mmHg | Response change (systolic BP increase to AII) (5 mg/kg oral, AII .025 ug/kg, 240 min): 0 mmHg | inhibition in vivo at 1 mg/kg (0.25 h, 1 mg/kg iv, AII .025 ug/kg, 15 min): 50% | inhibition in vivo at 1 mg/kg (0.25 h, 1 mg/kg iv, AII .05 ug/kg, 15 min): 89% | inhibition in vivo at 1 mg/kg (0.25 h, 1 mg/kg iv, AII .1 ug/kg, 15 min): 48% | inhibition in vivo at 1 mg/kg (0.5 h, 1 mg/kg iv, AII .025 ug/kg, 30 min): 50% | inhibition in vivo at 1 mg/kg (0.5 h, 1 mg/kg iv, AII .05 ug/kg, 30 min): 78% | inhibition in vivo at 1 mg/kg (0.5 h, 1 mg/kg iv, AII .1 ug/kg, 30 min): 27% | inhibition in vivo at 2 mg/kg (0.5 h, 2 mg/kg iv, AII .025 ug/kg, 30 min): 100% | inhibition in vivo at 2 mg/kg (0.5 h, 2 mg/kg iv, AII .05 ug/kg, 30 min): 100% | inhibition in vivo at 2 mg/kg (0.5 h, 2 mg/kg iv, AII .1 ug/kg, 30 min): 100% | inhibition in vivo at 1 mg/kg (1 h, 1 mg/kg iv, AII .025 ug/kg, 60 min): 83% | inhibition in vivo at 1 mg/kg (1 h, 1 mg/kg iv, AII .05 ug/kg, 60 min): 67% | inhibition in vivo at 1 mg/kg (1 h, 1 mg/kg iv, AII .1 ug/kg, 60 min): 27% | inhibition in vivo at 2 mg/kg (2 h, 2 mg/kg iv, AII .025 ug/kg, 120 min): 100% | inhibition in vivo at 2 mg/kg (2 h, 2 mg/kg iv, AII .05 ug/kg, 120 min): 33% | inhibition in vivo at 2 mg/kg (2 h, 2 mg/kg iv, AII .1 ug/kg, 120 min): 58% | inhibition in vivo at 2 mg/kg (2.5 h, 2 mg/kg iv, AII .025 ug/kg, 150 min): 100% | inhibition in vivo at 2 mg/kg (2.5 h, 2 mg/kg iv, AII .05 ug/kg, 150 min): 100% | inhibition in vivo at 2 mg/kg (2.5 h, 2 mg/kg iv, AII .1 ug/kg, 150 min): 82% | inhibition in vivo at 3 mg/kg (2.5 h, 3 mg/kg iv, AII .025 ug/kg, 150 min): 50% | inhibition in vivo at 3 mg/kg (2.5 h, 3 mg/kg iv, AII .05 ug/kg, 150 min): 67% | inhibition in vivo at 3 mg/kg (2.5 h, 3 mg/kg iv, AII .1 ug/kg, 150 min): 48% | inhibition in vivo at 5 mg/kg (0.5 h, 5 mg/kg oral, AII .025 ug/kg, 30 min): 94% | inhibition in vivo at 5 mg/kg (1 h, 5 mg/kg oral, AII .025 ug/kg, 60 min): 89% | inhibition in vivo at 5 mg/kg (1.5 h, 5 mg/kg oral, AII .05 ug/kg, 90 min): 61% | inhibition in vivo at 5 mg/kg (1.5 h, 5 mg/kg oral, AII .1 ug/kg, 90 min): 36% | inhibition in vivo at 5 mg/kg (2 h, 5 mg/kg oral, AII .025 ug/kg, 120 min): 94% | inhibition in vivo at 5 mg/kg (2 h, 5 mg/kg oral, AII .1 ug/kg, 120 min): 40% | inhibition in vivo at 5 mg/kg (3 h, 5 mg/kg oral, AII .025 ug/kg, 180 min): 72% | inhibition in vivo at 5 mg/kg (3 h, 5 mg/kg oral, AII .05 ug/kg, 180 min): 68% | inhibition in vivo at 5 mg/kg (3 h, 5 mg/kg oral, AII .1 ug/kg, 180 min): 56% | inhibition in vivo at 5 mg/kg (4 h, 5 mg/kg oral, AII .025 ug/kg, 240 min): 100% | inhibition in vivo at 5 mg/kg (4 h, 5 mg/kg oral, AII .05 ug/kg, 240 min): 49% | inhibition in vivo at 5 mg/kg (4 h, 5 mg/kg oral, AII .1 ug/kg, 240 min): 48%

CCCCc1nc2ccc(C(C)OC(C)=O)cc2c(=O)n1Cc1ccc(-c2ccccc2-c2nnn[nH]2)cc1 (stereo not drawn) [Example 58, 6-[1-(Acetyloxy)ethyl]-2-butyl-3-[[2'-(1H-tetrazol-5-yl)[1,1'-biphenyl]-4-yl]methyl]-4(3H) -quinazolinone]
inhibition in vivo at 30 mg/kg (0.5 h, AII .05 ug/kg, 30 min): 87% | inhibition in vivo at 30 mg/kg (0.5 h, AII .1 ug/kg, 30 min): 98% | inhibition in vivo at 30 mg/kg (1.5 h, AII .05 ug/kg, 90 min): 85% | inhibition in vivo at 30 mg/kg (1.5 h, AII .1 ug/kg, 90 min): 95% | inhibition in vivo at 30 mg/kg (2.5 h, AII .05 ug/kg, 150 min): 85% | inhibition in vivo at 30 mg/kg (2.5 h, AII .1 ug/kg, 150 min): 81%

CCCCc1nc2ccc(CO)cc2c(=O)n1Cc1ccc(-c2ccccc2-c2nnn[nH]2)cc1 [Example 53]
Response change (systolic BP increase to AII) (6 mg/kg iv, AII .025 ug/kg, 30 min): 15 mmHg | Response change (systolic BP increase to AII) (6 mg/kg iv, AII .025 ug/kg, 90 min): 10 mmHg | inhibition in vivo at 3 mg/kg (10 min, 3 mg/kg iv, AII .05 ug/kg): 62% | inhibition in vivo at 3 mg/kg (10 min, 3 mg/kg iv, AII .1 ug/kg): 42% | inhibition in vivo at 10 mg/kg (10 min, AII .05 ug/kg): 83% | inhibition in vivo at 10 mg/kg (10 min, AII .1 ug/kg): 90% | inhibition in vivo at 3 mg/kg (0.5 h, 3 mg/kg iv, AII .025 ug/kg, 30 min): 53% | inhibition in vivo at 6 mg/kg (0.5 h, 6 mg/kg iv, AII .025 ug/kg, 30 min): 50% | inhibition in vivo at 10 mg/kg (0.5 h, AII .05 ug/kg, 30 min, second 30/60/90 series): 76% | inhibition in vivo at 10 mg/kg (0.5 h, AII .1 ug/kg, 30 min, second 30/60/90 series): 60% | inhibition in vivo at 3 mg/kg (1 h, 3 mg/kg iv, AII .05 ug/kg, 60 min): 30% | inhibition in vivo at 3 mg/kg (1 h, 3 mg/kg iv, AII .1 ug/kg, 60 min): 13% | inhibition in vivo at 10 mg/kg (1 h, AII .05 ug/kg, 60 min, second 30/60/90 series): 46% | inhibition in vivo at 10 mg/kg (1 h, AII .1 ug/kg, 60 min, second 30/60/90 series): 44% | inhibition in vivo at 3 mg/kg (1.5 h, 3 mg/kg iv, AII .025 ug/kg, 90 min): 47% | inhibition in vivo at 3 mg/kg (1.5 h, 3 mg/kg iv, AII .1 ug/kg, 90 min): 13% | inhibition in vivo at 6 mg/kg (1.5 h, 6 mg/kg iv, AII .1 ug/kg, 90 min): 30% | inhibition in vivo at 10 mg/kg (1.5 h, AII .05 ug/kg, 90 min): 41% | inhibition in vivo at 10 mg/kg (1.5 h, AII .05 ug/kg, 90 min, second 30/60/90 series): 35% | inhibition in vivo at 10 mg/kg (1.5 h, AII .1 ug/kg, 90 min): 56% | inhibition in vivo at 10 mg/kg (1.5 h, AII .1 ug/kg, 90 min, second 30/60/90 series): 26%
